MIC and melting point data for 13 molecules are collected here from patent US6653330B2, “Amide-type triazole compounds” (Sankyo Company, Limited, priority 2000, dated 2003).

The test system of data set [1] is Aspergillus fumigatus SANK 10569. The data set can be described thus: In vitro antifungal activity (MIC), Aspergillus fumigatus. The class given is cell-based. The conditions noted are these: SANK10569, MIC = lowest concentration causing at least 80% growth inhibition (IC80), RPMI1640 pH 7.0, 30° C., trans isomers. As for the experimental part:
(§1) The antifungal activities of test compounds were assessed according to their minimum inhibitory concentrations (MICs) which were measured by the methods described below.
(§2) Liquid medium: RPMI1640 medium which was buffered to pH 7.0 (without an indicator) with 0.165M 3-(morpholino)propanesulfonic acid was used for Candida albicans and Aspergillus fumigatus. Yeast Nitrogen Base medium which was buffered to pH 7.0 with 0.165M 3-(morpholino)propanesulfonic acid was used for Cryptococcus neoformans.
(§3) Preparation of inoculation fungi solution: Each test fungi solution of Candida albicans and Cryptococcus neoformans was incubated on Sabouraud agar medium at 35° C. for 48 hours. About five colonies of the test fungi having 1 mm diameter were suspended in physiological saline and the transmittance of the suspension was adjusted to Macfarland 0.5 degree. A one thousand-fold diluted suspension of the resulting suspension was prepared by dilution with the liquid medium described above and was used for Candida albicans. A one hundred-fold diluted suspension of the resulting suspension was prepared by dilution with the liquid medium described above and was used for Cryptococcus neoformans. Aspergillus fumigatus was incubated on Potato dextrose agar at 35° C. for five days. Spores on the agar medium were collected with physiological saline containing 0.05% Tween 80 and the number of spores was adjusted to 2.5×10^7/ml using a blood cell counter. A one thousand-fold diluted suspension was prepared by dilution of the resulting spore suspension with the liquid medium described above and was used for Aspergillus fumigatus.
(§4) Preparation of test compound solution: Each test compound was dissolved in 100% dimethyl sulfoxide and serial two-fold dilutions of each compound were prepared with 100% dimethyl sulfoxide. The final concentration of dimethyl sulfoxide was adjusted to not greater than 1% by dilution with each liquid medium described above respectively.
(§5) Assessment method: Each diluted test compound (100 μl), the inoculation fungi solution (80 μl) and Alamar blue solution (20 μl) was sequentially added to each of wells of microtiter plate having 96 wells. The resulting mixture was incubated at 35° C. (30° C. for Aspergillus fumigatus). When the light absorbance at 570 nm of growth control exceeded 0.6, the MICs were determined. The MICs were defined as the lowest compound concentrations causing at least 80% growth inhibition (IC80) compared with the control to which the test compound was not added.

Data set [2] relates to Cryptococcus neoformans TIMM 1855. The data set can be described thus: In vitro antifungal activity (MIC), Cryptococcus neoformans. The conditions noted are these: TIMM1855, MIC = lowest concentration causing at least 80% growth inhibition (IC80), Yeast Nitrogen Base pH 7.0, 35° C., trans isomers. The format is cell-based. As for the experimental part: as §1, §2, §3, §4, §5

The subject of data set [3] is Candida albicans SANK 51486. Nature of the data set: In vitro antifungal activity (MIC), Candida albicans. As to conditions: SANK51486, MIC = lowest concentration causing at least 80% growth inhibition (IC80), RPMI1640 pH 7.0, 35° C., trans isomers. The format is cell-based. Here is the method:
as §1, §2, §3, §4, §5

In brackets after ≈: the same amount, converted by molar mass.

In general, MIC refers to the smallest concentration in the dilution series that meets the test's criterion for growth inhibition. A high value points to weaker potency. As usually defined, the melting point is the temperature of the solid-liquid transition.

`C[C@@H](S[C@H]1CO[C@H](c2cccc(C(=O)Nc3ccc(Cl)cc3)c2)OC1)[C@](O)(Cn1cncn1)c1ccc(F)cc1F` [Example 9, 4′-Chloro-3-[trans-5-[[(1R,2R)-2-(2,4-difluorophenyl)-2-hydroxy-1-methyl-3-(1H-1,2,4-triazol-1-yl)propyl]thio]-1,3-dioxan-2-yl]benzanilide] yielded a melting point of 90 °C. In data set [1], this molecule registered an MIC of 2 µg/mL (≈ 3.33 µM). In data set [2], this molecule gave an MIC of 0.25 µg/mL (≈ 0.416 µM). Also, the minimum inhibitory concentration (MIC) in data set [3] was no more than 0.008 µg/mL.

Molecule `C[C@@H](S[C@H]1CO[C@H](c2ccc3cc(C(=O)Nc4ccc(C#N)cc4)ccc3c2)OC1)[C@](O)(Cn1cncn1)c1ccc(F)cc1F` [Example 3, 4′-Cyano-6-[trans-5-[[(1R,2R)-2-(2,4-difluorophenyl)-2-hydroxy-1-methyl-3-(1H-1,2,4-triazol-1-yl)propyl]thio]-1,3-dioxan-2-yl]-2-naphthoanilide] showed a melting point of 114 °C. The molecule also yielded an MIC in data set [1] of 0.063 µg/mL (≈ 0.0982 µM). The MIC in data set [2] came out at 0.063 µg/mL (≈ 0.0982 µM). Besides, the minimum inhibitory concentration (MIC) in data set [3] is no more than 0.008 µg/mL.

Regarding `C[C@@H](SC1COC(c2ccccc2)OC1)[C@](O)(Cn1cncn1)c1ccc(F)cc1F` (stereo partly drawn) [Comparative compound (A), reference compound], the minimum inhibitory concentration (MIC) was 4 µg/mL (≈ 8.94 µM) in data set [1], 0.25 µg/mL (≈ 0.559 µM) in data set [2] and 0.063 µg/mL (≈ 0.141 µM) in data set [3].

As for `C[C@@H](S[C@H]1CO[C@H](c2ccc(C(=O)Nc3ccc(F)cc3)cc2)OC1)[C@](O)(Cn1cncn1)c1ccc(F)cc1F` [Example 10, 4-[trans-5-[[(1R,2R)-2-(2,4-Difluorophenyl)-2-hydroxy-1-methyl-3-(1H-1,2,4-triazol-1-yl)propyl]thio]-1,3-dioxan-2-yl]-4′-fluorobenzanilide], the melting point came out at 104 °C.

On to `C[C@@H](S[C@H]1CO[C@H](c2ccc(C(=O)Nc3nccs3)cc2)OC1)[C@](O)(Cn1cncn1)c1ccc(F)cc1F` [Example 27, 4-[trans-5-[[(1R,2R)-2-(2,4-Difluorophenyl)-2-hydroxy-1-methyl-3-(1H-1,2,4-triazol-1-yl)propyl]thio]-1,3-dioxan-2-yl]-N-(2-thiazolyl)benzamide], for which the melting point was 108 °C.

With `C[C@@H](S[C@H]1CO[C@H](c2ccc(C(=O)NCc3ccc(C#N)cc3)cc2)OC1)[C@](O)(Cn1cncn1)c1ccc(F)cc1F` [Example 26, N-(4-Cyanobenzyl)-4-[trans-5-[[(1R,2R)-2-(2,4-difluorophenyl)-2-hydroxy-1-methyl-3-(1H-1,2,4-triazol-1-yl)propyl]thio]-1,3-dioxan-2-yl]benzamide], the melting point came to 188 °C. Moreover, inhibition of growth in data set [1] (MIC) required 0.25 µg/mL (≈ 0.413 µM). In addition, the lowest concentration to inhibit growth in data set [2] (MIC) was 0.25 µg/mL (≈ 0.413 µM). This molecule also returned an MIC in data set [3] of 0.016 µg/mL (≈ 0.0264 µM).

In the case of `C[C@@H](S[C@H]1CO[C@H](c2ccc(C(=O)Nc3ccc(C#N)cc3)cc2F)OC1)[C@](O)(Cn1cncn1)c1ccc(F)cc1F` [Example 5, 4′-Cyano-4-[trans-5-[[(1R,2R)-2-(2,4-difluorophenyl)-2-hydroxy-1-methyl-3-(1H-1,2,4-triazol-1-yl)propyl]thio]-1,3-dioxan-2-yl]-3-fluorobenzanilide], the melting point came to 110 °C.

`C[C@@H](S[C@H]1CO[C@H](c2ccc(C(=O)Nc3ccc(O)cc3)cc2)OC1)[C@](O)(Cn1cncn1)c1ccc(F)cc1F` [Example 23, 4-[trans-5-[[(1R,2R)-2-(2,4-Difluorophenyl)-2-hydroxy-1-methyl-3-(1H-1,2,4-triazol-1-yl)propyl]thio]-1,3-dioxan-2-yl]-4′-hydroxybenzanilide] yielded a melting point of 254 °C. In data set [1], this molecule had a minimal inhibitory concentration (MIC) of 0.5 µg/mL (≈ 0.858 µM). The same molecule displayed a minimum inhibitory concentration (MIC) in data set [2] of 0.25 µg/mL (≈ 0.429 µM). In data set [3], this molecule had a minimal inhibitory concentration (MIC) of 0.016 µg/mL (≈ 0.0275 µM).

As for `C[C@@H](S[C@H]1CO[C@H](c2ccc(C(=O)Nc3ccc(OCC(F)(F)C(F)F)cc3)cc2)OC1)[C@](O)(Cn1cncn1)c1ccc(F)cc1F` [Example 1, 4-[trans-5-[[(1R,2R)-2-(2,4-Difluorophenyl)-2-hydroxy-1-methyl-3-(1H-1,2,4-triazol-1-yl)propyl]thio]-1,3-dioxan-2-yl]-4′-(2,2,3,3-tetrafluoropropoxy)benzanilide], the melting point worked out at 156 °C. The molecule also displayed a minimal inhibitory concentration (MIC) in data set [1] of 0.125 µg/mL (≈ 0.179 µM). It took 0.063 µg/mL (≈ 0.0904 µM) to inhibit growth in data set [2] (MIC). In addition, the MIC in data set [3] was 0.016 µg/mL (≈ 0.023 µM).

Molecule `C[C@@H](S[C@H]1CO[C@H](c2ccc(C(=O)Nc3ccc(C(N)=O)cc3)cc2)OC1)[C@](O)(Cn1cncn1)c1ccc(F)cc1F` [Example 30, 4′-Carbamoyl-4-[trans-5-[[(1R,2R)-2-(2,4-difluorophenyl)-2-hydroxy-1-methyl-3-(1H-1,2,4-triazol-1-yl)propyl]thio]-1,3-dioxan-2-yl]benzanilide] displayed a melting point of 230 °C.

Turning to `C[C@@H](C[C@H]1CO[C@H](c2ccc(C(=O)Nc3ccc(C#N)cc3)cc2)OC1)[C@](O)(Cn1cncn1)c1ccc(F)cc1F` [Example 4, 4′-Cyano-4-[trans-5-[(2S,3R)-3-(2,4-difluorophenyl)-3-hydroxy-2-methyl-4-(1H-1,2,4-triazol-1-yl)butyl]-1,3-dioxan-2-yl]benzanilide], the melting point turned out to be 159 °C.

`C[C@@H](S[C@H]1CO[C@H](c2cccc(C(=O)Nc3ccc(C#N)cc3)c2)OC1)[C@](O)(Cn1cncn1)c1ccc(F)cc1F` [Example 6, 4′-Cyano-3-[trans-5-[[(1R,2R)-2-(2,4-difluorophenyl)-2-hydroxy-1-methyl-3-(1H-1,2,4-triazol-1-yl)propyl]thio]-1,3-dioxan-2-yl]benzanilide] had a melting point of 105 °C.

For the molecule `Cc1ccc(NC(=O)c2ccc([C@H]3OC[C@H](S[C@H](C)[C@](O)(Cn4cncn4)c4ccc(F)cc4F)CO3)cc2)cc1` [Example 14, 4-[trans-5-[[(1R,2R)-2-(2,4-Difluorophenyl)-2-hydroxy-1-methyl-3-(1H-1,2,4-triazol-1-yl)propyl]thio]-1,3-dioxan-2-yl]-4′-methylbenzanilide], the melting point came to 101 °C.
